{"source": "patent US11253517B2", "about": "“Small molecule regulators of steroid receptor coactivators and methods of use thereof” (BAYLOR COLLEGE OF MEDICINE, priority 2016, dated 2022)", "key": {"[1]": {"tested_on": "BT-474 cells", "test": "IC50 in BT-474 cells, 72 hours incubation", "type": "cell-based", "experimental": "(§1) The compounds described herein were synthesized as described in Example 1. The IC50 values were measured in MDA-MB-468, BT-474, and MCF-7 cells by incubating a series of concentrations of the corresponding compounds for 72 hours.\n(§2) In Tables 1 and 2, “−” represents IC50 or EC50 values greater than 10 μM; “+” represents IC50 or EC50 values from greater than 1 μM to 10 μM; “++” represents IC50 or EC50 values from 0.1 μM to 1 μM; and “+++” represents IC50 or EC50 values less than 0.1 μM."}, "[2]": {"tested_on": "panel of 24 kinases", "test": "Kinase-Glo Luminescent Kinase Assay, panel of 24 kinases", "type": "biochemical", "conditions": "1000 nM, 50 nM and 5 nM, versus DMSO vehicle control", "experimental": "(§3) SI-12 was also tested for its ability to disrupt kinase activity. The effects of the compound were tested on a panel of 24 kinases using a Kinase-Glo Luminescent Kinase Assay system (Promega; Madison, Wis.). SI-12 was tested, at concentrations of 1000 nM, 50 nM, and 5 nM, for its ability to interfere with recombinant kinases in the assay system. The amount of ATP to ADP conversion in the presence of SI-12 was compared to a DMSO vehicle control. The values shown in Table 3 represent the percentage of kinase activity compared to a DMSO vehicle control.\n(§4) In Table 3, “−” represents less than 20% inhibition; “+” represents from 20% to 40% inhibition; “++” represents from 40% to 60% inhibition; and “+++” represents greater than 60% inhibition."}, "[3]": {"molecular_target": "T1, CK1a 1 (Homo sapiens, UniProt P48729)", "T1 construct": "purchased Promega", "T1 sequence (P48729 whole entry)": "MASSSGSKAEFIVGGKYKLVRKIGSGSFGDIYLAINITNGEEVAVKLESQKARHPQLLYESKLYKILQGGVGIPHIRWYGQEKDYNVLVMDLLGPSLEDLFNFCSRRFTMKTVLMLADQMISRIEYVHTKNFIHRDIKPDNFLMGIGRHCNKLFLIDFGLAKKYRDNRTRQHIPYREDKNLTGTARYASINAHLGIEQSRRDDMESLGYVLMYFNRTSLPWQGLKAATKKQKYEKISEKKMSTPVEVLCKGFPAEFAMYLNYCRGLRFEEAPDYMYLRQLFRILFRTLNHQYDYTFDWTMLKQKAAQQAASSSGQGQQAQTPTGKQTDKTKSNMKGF", "test": "Kinase-Glo Luminescent Kinase Assay", "type": "biochemical", "experimental": "as §3, §4"}, "[4]": {"molecular_target": "T2, DAPK1 (Homo sapiens, UniProt P53355)", "T2 construct": "purchased Promega", "T2 sequence (P53355 whole entry)": "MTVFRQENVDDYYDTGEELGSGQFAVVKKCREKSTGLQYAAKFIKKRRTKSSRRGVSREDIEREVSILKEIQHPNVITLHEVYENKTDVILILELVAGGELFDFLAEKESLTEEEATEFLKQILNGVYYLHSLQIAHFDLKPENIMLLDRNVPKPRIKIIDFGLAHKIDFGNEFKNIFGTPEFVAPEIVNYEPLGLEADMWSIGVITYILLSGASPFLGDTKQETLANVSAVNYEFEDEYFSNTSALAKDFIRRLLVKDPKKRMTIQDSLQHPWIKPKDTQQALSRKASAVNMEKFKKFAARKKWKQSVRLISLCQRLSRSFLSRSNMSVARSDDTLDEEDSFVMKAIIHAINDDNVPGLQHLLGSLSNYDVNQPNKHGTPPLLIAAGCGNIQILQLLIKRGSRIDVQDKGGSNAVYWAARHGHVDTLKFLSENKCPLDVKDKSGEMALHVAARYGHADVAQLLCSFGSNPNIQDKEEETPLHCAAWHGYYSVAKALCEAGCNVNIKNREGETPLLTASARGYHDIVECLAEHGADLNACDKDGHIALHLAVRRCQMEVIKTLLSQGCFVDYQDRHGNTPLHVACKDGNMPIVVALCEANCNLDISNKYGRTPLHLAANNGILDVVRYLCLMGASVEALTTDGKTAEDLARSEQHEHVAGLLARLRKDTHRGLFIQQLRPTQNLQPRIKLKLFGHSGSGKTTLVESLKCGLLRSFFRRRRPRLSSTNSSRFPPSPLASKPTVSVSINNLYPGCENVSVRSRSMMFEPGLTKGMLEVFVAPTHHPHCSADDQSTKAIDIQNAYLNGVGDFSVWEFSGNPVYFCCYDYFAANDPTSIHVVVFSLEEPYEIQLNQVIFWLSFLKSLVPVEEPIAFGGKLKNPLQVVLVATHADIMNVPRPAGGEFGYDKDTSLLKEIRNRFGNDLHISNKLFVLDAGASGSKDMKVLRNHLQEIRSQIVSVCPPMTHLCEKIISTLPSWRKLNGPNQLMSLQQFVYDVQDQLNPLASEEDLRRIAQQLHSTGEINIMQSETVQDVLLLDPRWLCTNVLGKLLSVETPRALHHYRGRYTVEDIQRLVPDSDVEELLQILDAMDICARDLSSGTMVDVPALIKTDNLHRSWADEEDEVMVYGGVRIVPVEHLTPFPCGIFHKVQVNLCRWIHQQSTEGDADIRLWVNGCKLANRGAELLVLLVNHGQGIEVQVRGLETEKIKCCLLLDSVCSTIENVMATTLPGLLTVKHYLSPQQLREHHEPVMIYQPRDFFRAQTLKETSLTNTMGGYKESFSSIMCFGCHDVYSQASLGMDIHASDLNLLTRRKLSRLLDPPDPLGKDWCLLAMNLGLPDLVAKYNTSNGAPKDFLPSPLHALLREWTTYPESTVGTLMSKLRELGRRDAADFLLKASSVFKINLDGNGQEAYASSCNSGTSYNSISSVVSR", "test": "Kinase-Glo Luminescent Kinase Assay", "type": "biochemical", "experimental": "as §3, §4"}, "[5]": {"molecular_target": "T3, CAMK4 (Homo sapiens, UniProt Q16566)", "T3 construct": "purchased Promega", "T3 sequence (Q16566 whole entry)": "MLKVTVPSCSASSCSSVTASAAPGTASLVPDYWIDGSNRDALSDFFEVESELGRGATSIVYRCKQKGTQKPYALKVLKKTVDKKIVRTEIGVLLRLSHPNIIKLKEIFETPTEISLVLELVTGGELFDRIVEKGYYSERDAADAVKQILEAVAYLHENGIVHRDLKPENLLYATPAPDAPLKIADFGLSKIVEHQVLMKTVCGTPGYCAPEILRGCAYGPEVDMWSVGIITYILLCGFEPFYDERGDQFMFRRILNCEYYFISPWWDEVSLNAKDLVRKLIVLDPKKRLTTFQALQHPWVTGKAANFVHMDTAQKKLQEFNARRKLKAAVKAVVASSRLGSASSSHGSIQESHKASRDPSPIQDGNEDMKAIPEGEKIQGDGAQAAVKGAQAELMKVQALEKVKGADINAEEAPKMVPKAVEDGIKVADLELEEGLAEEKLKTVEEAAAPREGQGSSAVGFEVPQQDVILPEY", "test": "Kinase-Glo Luminescent Kinase Assay", "type": "biochemical", "experimental": "as §3, §4"}, "[6]": {"molecular_target": "T4, CHK1 (Homo sapiens, UniProt O14757)", "T4 construct": "purchased Promega", "T4 sequence (O14757 1-476)": "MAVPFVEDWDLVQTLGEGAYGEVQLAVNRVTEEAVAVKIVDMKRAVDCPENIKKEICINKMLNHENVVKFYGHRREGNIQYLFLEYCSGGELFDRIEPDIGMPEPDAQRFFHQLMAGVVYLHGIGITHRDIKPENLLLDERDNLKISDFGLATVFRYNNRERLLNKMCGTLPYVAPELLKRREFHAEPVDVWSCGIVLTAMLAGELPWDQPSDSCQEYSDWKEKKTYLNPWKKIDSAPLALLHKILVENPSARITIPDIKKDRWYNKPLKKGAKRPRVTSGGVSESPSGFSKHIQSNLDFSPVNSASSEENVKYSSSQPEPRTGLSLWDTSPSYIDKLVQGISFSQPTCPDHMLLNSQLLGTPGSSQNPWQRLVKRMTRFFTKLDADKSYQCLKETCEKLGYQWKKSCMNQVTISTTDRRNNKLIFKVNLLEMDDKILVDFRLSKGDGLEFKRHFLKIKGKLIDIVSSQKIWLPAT", "test": "Kinase-Glo Luminescent Kinase Assay", "type": "biochemical", "experimental": "as §3, §4"}, "[7]": {"molecular_target": "T5, TAK1-TAB1 (Homo sapiens, UniProt O43318)", "T5 construct": "purchased Promega", "T5 sequence (O43318 with tags, fused parts or gaps limits assumed)": "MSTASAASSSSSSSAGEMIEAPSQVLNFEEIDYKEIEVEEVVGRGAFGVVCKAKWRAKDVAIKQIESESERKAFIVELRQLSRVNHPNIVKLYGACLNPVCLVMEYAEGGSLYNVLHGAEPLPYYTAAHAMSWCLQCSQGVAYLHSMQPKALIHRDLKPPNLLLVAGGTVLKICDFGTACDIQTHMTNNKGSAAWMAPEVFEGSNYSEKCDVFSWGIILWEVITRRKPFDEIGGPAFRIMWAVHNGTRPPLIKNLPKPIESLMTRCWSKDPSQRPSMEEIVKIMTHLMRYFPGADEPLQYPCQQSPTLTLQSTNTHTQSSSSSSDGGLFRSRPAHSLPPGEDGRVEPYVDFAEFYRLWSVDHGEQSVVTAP", "test": "Kinase-Glo Luminescent Kinase Assay", "type": "biochemical", "experimental": "as §3, §4"}, "[8]": {"molecular_target": "T6, PKCa (Homo sapiens, UniProt P17252)", "T6 construct": "purchased Promega", "test": "Kinase-Glo Luminescent Kinase Assay", "type": "biochemical", "experimental": "as §3, §4"}, "[9]": {"molecular_target": "T7, MAPKAPK2 (Homo sapiens, UniProt P49137)", "T7 construct": "purchased Promega", "T7 sequence (P49137 whole entry)": "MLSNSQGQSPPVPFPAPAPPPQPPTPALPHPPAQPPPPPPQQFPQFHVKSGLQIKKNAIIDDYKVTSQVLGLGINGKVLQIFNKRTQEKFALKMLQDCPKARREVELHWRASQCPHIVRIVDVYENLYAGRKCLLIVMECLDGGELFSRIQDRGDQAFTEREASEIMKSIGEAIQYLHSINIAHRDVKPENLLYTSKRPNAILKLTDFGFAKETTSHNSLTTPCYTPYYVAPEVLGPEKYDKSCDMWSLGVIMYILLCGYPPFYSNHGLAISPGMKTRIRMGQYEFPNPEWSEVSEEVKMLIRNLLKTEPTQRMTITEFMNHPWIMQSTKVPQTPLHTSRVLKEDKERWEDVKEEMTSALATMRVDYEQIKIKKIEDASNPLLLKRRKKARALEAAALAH", "test": "Kinase-Glo Luminescent Kinase Assay", "type": "biochemical", "experimental": "as §3, §4"}, "[10]": {"molecular_target": "T8, CK2a 1 (Homo sapiens, UniProt P68400)", "T8 construct": "purchased Promega", "T8 sequence (P68400 whole entry)": "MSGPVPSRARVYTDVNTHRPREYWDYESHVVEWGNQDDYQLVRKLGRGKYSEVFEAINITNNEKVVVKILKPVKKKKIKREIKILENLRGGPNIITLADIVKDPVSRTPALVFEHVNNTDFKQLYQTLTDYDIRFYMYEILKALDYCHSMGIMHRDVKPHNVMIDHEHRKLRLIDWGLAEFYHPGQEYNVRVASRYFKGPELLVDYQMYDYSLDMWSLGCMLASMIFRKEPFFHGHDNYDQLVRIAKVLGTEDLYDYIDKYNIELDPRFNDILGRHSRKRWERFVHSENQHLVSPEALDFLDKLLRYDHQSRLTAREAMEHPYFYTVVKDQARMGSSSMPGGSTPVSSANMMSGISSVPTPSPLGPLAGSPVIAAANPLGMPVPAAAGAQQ", "test": "Kinase-Glo Luminescent Kinase Assay", "type": "biochemical", "experimental": "as §3, §4"}, "[11]": {"tested_on": "MCF-7 cells", "test": "IC50 in MCF-7 cells, 72 hours incubation", "type": "cell-based", "experimental": "as §1, §2"}, "[12]": {"tested_on": "Panc-1-Luc pancreatic tumor", "test": "Orthotopic pancreatic cancer mouse model (Panc-1-Luc)", "type": "in vivo, SCID mice", "experimental": "FIG. 3, Panels A-E show the therapeutic efficacy of SI-12 in an orthotopic pancreatic cancer mouse model. […] Data represent mean±SEM. *, P<0.05, **, P<0.01 by student t-test.\nSI-12 was tested in pancreatic, lung, brain, and melanoma cancers. A representative example for pancreatic tumor treatment is described below. Panc-1 cells stably expressing firefly luciferase cells (Panc-1-Luc, 0.5×10^6 cells per mouse) were injected into the tail of pancreas of SCID mice (6-7 weeks). The mice were randomized into two groups based on luciferase imaging (n=8 per group). Eight days after tumor inoculation, the two groups were administered SI-12 (10 mg/kg, i.p. injection, once daily) or an equal volume of vehicle control five times per week. Tumor growth and systemic toxicity were monitored based on luciferase imaging and body weight weekly. The mice were sacrificed after eight weeks of treatment. […] At the end of the experiment, tumors were harvested and weighed. The average tumor weight in SI-12 treated mice was ˜30% of the vehicle treated counterparts (FIG. 3D).\nTo test whether SI-12 causes SRC-3 down-regulation in vivo, the SRC-3 levels in tumor tissues were measured by immunohistochemistry (IHC). Multiple tumor tissues (N>3) collected from both the control group and the SI-12 treated group were processed and immunohistochemically stained with an anti-SRC-3 antibody or an anti-Ki-67 antibody. […] Ki-67, a cell proliferation marker, was also immunochemically analyzed."}, "[13]": {"conditions": "10 mg/kg i.p. once daily, five times per week, eight weeks"}}}
{"compound": "CC(=NNc1nc2cc(F)c(F)cc2n1C)c1ccc(F)cn1", "note": "[SI-12]", "values": [{"measurement": "IC50", "setting": "[1]", "result": "< 0.1", "unit": "µM"}, {"measurement": "effects on kinase activity, panel overall", "setting": "[2]", "result": "minimal effects on kinase activity"}, {"measurement": "CK1a 1 kinase inhibition", "setting": "[3]; 5 nM", "result": "− (less than 20% inhibition)"}, {"measurement": "CK1a 1 kinase inhibition", "setting": "[3]; 50 nM", "result": "− (less than 20% inhibition)"}, {"measurement": "CK1a 1 kinase inhibition", "setting": "[3]; 1000 nM", "result": "− (less than 20% inhibition)"}, {"measurement": "DAPK1 kinase inhibition", "setting": "[4]; 5 nM", "result": "− (less than 20% inhibition)"}, {"measurement": "DAPK1 kinase inhibition", "setting": "[4]; 50 nM", "result": "− (less than 20% inhibition)"}, {"measurement": "DAPK1 kinase inhibition", "setting": "[4]; 1000 nM", "result": "− (less than 20% inhibition)"}, {"measurement": "CAMK4 kinase inhibition", "setting": "[5]; 5 nM", "result": "− (less than 20% inhibition)"}, {"measurement": "CAMK4 kinase inhibition", "setting": "[5]; 50 nM", "result": "− (less than 20% inhibition)"}, {"measurement": "CAMK4 kinase inhibition", "setting": "[5]; 1000 nM", "result": "− (less than 20% inhibition)"}, {"measurement": "CHK1 kinase inhibition", "setting": "[6]; 5 nM", "result": "− (less than 20% inhibition)"}, {"measurement": "CHK1 kinase inhibition", "setting": "[6]; 50 nM", "result": "− (less than 20% inhibition)"}, {"measurement": "CHK1 kinase inhibition", "setting": "[6]; 1000 nM", "result": "− (less than 20% inhibition)"}, {"measurement": "TAK1-TAB1 kinase inhibition", "setting": "[7]; 5 nM", "result": "− (less than 20% inhibition)"}, {"measurement": "TAK1-TAB1 kinase inhibition", "setting": "[7]; 50 nM", "result": "− (less than 20% inhibition)"}, {"measurement": "TAK1-TAB1 kinase inhibition", "setting": "[7]; 1000 nM", "result": "− (less than 20% inhibition)"}, {"measurement": "PKCa kinase inhibition", "setting": "[8]; 5 nM", "result": "− (less than 20% inhibition)"}, {"measurement": "PKCa kinase inhibition", "setting": "[8]; 50 nM", "result": "− (less than 20% inhibition)"}, {"measurement": "PKCa kinase inhibition", "setting": "[8]; 1000 nM", "result": "− (less than 20% inhibition)"}, {"measurement": "MAPKAPK2 kinase inhibition", "setting": "[9]; 5 nM", "result": "− (less than 20% inhibition)"}, {"measurement": "MAPKAPK2 kinase inhibition", "setting": "[9]; 50 nM", "result": "− (less than 20% inhibition)"}, {"measurement": "MAPKAPK2 kinase inhibition", "setting": "[9]; 1000 nM", "result": "− (less than 20% inhibition)"}, {"measurement": "CK2a 1 kinase inhibition", "setting": "[10]; 5 nM", "result": "− (less than 20% inhibition)"}, {"measurement": "CK2a 1 kinase inhibition", "setting": "[10]; 50 nM", "result": "− (less than 20% inhibition)"}, {"measurement": "CK2a 1 kinase inhibition", "setting": "[10]; 1000 nM", "result": "− (less than 20% inhibition)"}, {"measurement": "IC50", "setting": "[11]", "result": "< 0.1", "unit": "µM"}, {"measurement": "body weight loss", "setting": "[12]; [13]", "result": "minimal body weight loss"}, {"measurement": "pancreatic tumor growth (luciferase imaging)", "setting": "[12]; [13]", "result": "significantly delayed pancreatic tumor growth"}, {"measurement": "average tumor weight relative to vehicle treated counterparts", "setting": "[12]; end of experiment, after eight weeks of treatment, 10 mg/kg i.p.", "result": "~30", "unit": "%"}, {"measurement": "Ki-67 positive cells in tumor tissues (IHC)", "setting": "[12]; versus control group, anti-Ki-67 antibody", "result": "dramatically fewer Ki-67 positive cells"}, {"measurement": "SRC-3 levels in tumor tissues (IHC)", "setting": "[12]; versus vehicle treated control group, anti-SRC-3 antibody", "result": "significantly lower than the vehicle treated control group"}]}
